From patent publication US20240109863A1, “2-PYRIDONE DERIVATIVE, AND PREPARATION METHOD THEREFOR AND PHARMACEUTICAL APPLICATION THEREOF” (KPC PHARMACEUTICALS, INC, priority 2020, published 2024) come the findings set out here.

The target in one assay is T1, THRβ (Homo sapiens, UniProt P10828).
T1 construct: RXRα and THRβ-LBD Eu-anti-GST antibody with GST tag
The assay can be described thus: THRβ binding assay (time-resolved FRET coactivator peptide recruitment). The following applies: THRβ-LBD/RXRα, SRC2-2 coactivator peptide recruitment, 4 hours at room temperature. It counts as biochemical. As to the method: Experimental methods: In vitro analysis of the agonistic effect of compounds on THRβ was performed using time-resolved fluorescence resonance energy transfer coactivator peptide recruitment assays. The assay used biotin-SRC2-2 coactivator peptide, streptavidin-d2, RXRα and THRβ-LBD Eu-anti-GST antibody with GST tag. Eu-anti-GST antibody indirectly labeled THRβ-LBD by binding to the GST tag. Streptavidin-d2 indirectly labeled the SRC2-2 coactivator peptide by binding to the biotin tag. In the presence of RXRα, THRβ-LBD can form heterodimer THRβ-LBD/RXRα with it. […] According to the effect of different concentrations of the compound on the activity of THRβ, the agonistic ability of the compound can be evaluated.
The detailed procedure is as follows: • a. 100× reference compound or compound was prepared with DMSO, and equally diluted by 1:3. • b. 100× gradiently diluted reference compound or compound was diluted with 1× reaction buffer to 4×, which was then added to an assay plate. • c. A mixed solution of 4× THRβ-LBD and 4× RXRα was prepared with 1× reaction buffer, and added to the assay plate. • d. A mixed solution of 2× biotin-SRC2-2, 2× Eu-anti-GST, and 2× streptavidin-d2 was prepared with 1× reaction buffer, and added to the assay plate. • e. The assay plate was centrifuged at 1000 rpm for 1 min, and incubated at room temperature in the dark for 4 hours. • f.

A further assay concerns the target T2, THRα (Homo sapiens, UniProt P10827).
T2 construct: GST
The assay can be described thus: THRα binding assay (as the THRβ assay, THRβ replaced with THRα). It counts as biochemical. The following applies: for EC50: THRα in place of THRβ; for THRα/β selectivity (fold): ratio of THRα EC50 to THRβ EC50.

As a reminder, the EC50 is the concentration needed to bring the measured effect to its halfway point. A higher EC50 goes with a need for much substance.

T1 sequence (P10828 217-461 limits assumed, other chains not shown): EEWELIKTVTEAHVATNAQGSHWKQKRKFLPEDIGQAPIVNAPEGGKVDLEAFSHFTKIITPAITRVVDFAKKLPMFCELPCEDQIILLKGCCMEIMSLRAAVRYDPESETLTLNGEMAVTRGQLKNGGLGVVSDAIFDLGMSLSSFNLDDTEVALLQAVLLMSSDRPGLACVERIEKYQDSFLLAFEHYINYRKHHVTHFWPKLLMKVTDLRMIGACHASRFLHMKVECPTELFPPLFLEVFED
T1 sequence (P19793 whole entry partner, other chains not shown, the tested form may be a part): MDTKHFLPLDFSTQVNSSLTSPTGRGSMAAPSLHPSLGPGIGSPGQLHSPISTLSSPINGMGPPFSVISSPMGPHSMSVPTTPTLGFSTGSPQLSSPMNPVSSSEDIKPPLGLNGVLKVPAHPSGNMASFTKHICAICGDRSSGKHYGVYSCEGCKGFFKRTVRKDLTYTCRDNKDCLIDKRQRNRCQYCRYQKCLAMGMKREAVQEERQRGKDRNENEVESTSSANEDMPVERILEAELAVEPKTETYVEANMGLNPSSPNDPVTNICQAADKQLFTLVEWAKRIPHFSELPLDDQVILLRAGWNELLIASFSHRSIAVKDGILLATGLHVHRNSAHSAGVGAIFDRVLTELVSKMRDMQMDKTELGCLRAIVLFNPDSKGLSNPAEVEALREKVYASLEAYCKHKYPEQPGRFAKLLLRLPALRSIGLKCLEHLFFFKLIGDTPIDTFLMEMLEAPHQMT
T2 sequence (P10827 1-410 isoform P10827-2, other chains not shown): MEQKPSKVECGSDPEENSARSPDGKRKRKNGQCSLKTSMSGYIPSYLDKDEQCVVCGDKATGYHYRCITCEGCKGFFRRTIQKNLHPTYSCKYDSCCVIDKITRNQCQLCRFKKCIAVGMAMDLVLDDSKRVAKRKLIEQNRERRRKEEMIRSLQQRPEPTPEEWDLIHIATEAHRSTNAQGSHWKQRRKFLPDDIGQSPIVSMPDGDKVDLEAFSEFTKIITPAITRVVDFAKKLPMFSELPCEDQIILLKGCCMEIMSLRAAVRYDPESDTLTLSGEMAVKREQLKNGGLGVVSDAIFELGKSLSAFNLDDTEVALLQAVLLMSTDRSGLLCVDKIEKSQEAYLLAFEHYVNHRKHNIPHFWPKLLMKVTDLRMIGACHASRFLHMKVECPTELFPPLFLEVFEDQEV
T2 sequence (P19793 whole entry partner, other chains not shown): as the sequence (P19793 whole entry partner, other chains not shown, the tested form may be a part) above

In turn, `N#Cc1nn(-c2cc(Cl)c(Oc3ccc(=O)[nH]c3)c(Cl)c2)c(=O)[nH]c1=O` [Example 2, 2-(3,5-Dichloro-4-((6-oxo-1,6-dihydropyridin-3-yl)oxy)phenyl)-3,5-dioxo-2,3,4,5-tetra hydro-1H-1,2,4-triazine-6-carbonitrile] registered an EC50 at THRβ of 3650 nM.

Take `CC(C)Cn1cc(Oc2c(Cl)cc(-n3nc(C#N)c(=O)[nH]c3=O)cc2Cl)ccc1=O` [Example 6, 2-(3,5-Dichloro-4-[(1-(2-methylpropyl)-6-oxo-1,6-dihydropyridin-3-yl)oxy]phenyl)-3,5-dioxo-2,3,4,5-tetrahydro-1,2,4-triazine-6-carbonitrile]: the EC50 on THRα is 2030 nM; at THRβ it was 100 nM. The “THRα/β selectivity (fold)” value at THRα was 20.3 fold.

With `CCC(CC)n1cc(Oc2c(Cl)cc(-n3nc(C#N)c(=O)[nH]c3=O)cc2Cl)ccc1=O` [Example 7, 2-(3,5-dichloro-4-((6-oxo-1-(pentan-3-yl)-1,6-dihydropyridin-3-yl)oxy)phenyl)-3,5-dioxo-2,3,4,5-tetrahydro-1,2,4-triazine-6-carbonitrile], the EC50 on THRβ turned out to be 40 nM.

The molecule `COCCn1cc(Oc2c(Cl)cc(-n3nc(C#N)c(=O)[nH]c3=O)cc2Cl)ccc1=O` [Example 8, 2-(3,5-Dichloro-4-((1-(2-methoxyethyl)-6-oxo-1,6-dihydropyridin-3-yl)oxy)phenyl) -3,5-dioxo-2,3,4,5-tetrahydro-1,2,4-triazine-6-carbonitrile] gave a concentration for a half-maximal effect (EC50) at THRβ of 431 nM.

As to `N#Cc1nn(-c2cc(Cl)c(Oc3ccc(=O)n(C4=CCCCC4)c3)c(Cl)c2)c(=O)[nH]c1=O` [Example 13, 2-(3,5-Dichloro-4-((1-(cyclohex-1-en-1-yl)-6-oxo-1,6-dihydropyridin-3-yl)oxy)phenyl) -3,5-dioxo-2,3,4,5-tetrahydro-1,2,4-triazine-6-carbonitrile], a half-maximal effect on THRβ (EC50) was put at 22 nM. This EC50 is about 20-fold lower than that of the molecule before.

At THRβ, `Cc1cc(Oc2c(Cl)cc(-n3nc(C#N)c(=O)[nH]c3=O)cc2Cl)cn(C2CC2)c1=O` [Example 18, 2-(3,5-Dichloro-4-((1-cyclopropyl-5-methyl-6-oxo-1,6-dihydropyridin-3-yl)oxy)phenyl) -3,5-dioxo-2,3,4,5-tetrahydro-1,2,4-triazine-6-carbonitrile] came in with a concentration for a half-maximal effect (EC50) of 1430 nM.

For `CC(C)n1cc(Oc2c(Cl)cc(-n3nc(C#N)c(=O)[nH]c3=O)cc2Cl)cc(C2CC2)c1=O` [Example 19, 2-(3,5-Dichloro-4-((5-cyclopropyl-1-isopropyl-6-oxo-1,6-dihydropyridin-3-yl)oxy)phenyl)-3,5-dioxo-2,3,4,5-tetrahydro-1,2,4-triazine-6-carbonitrile], the EC50 on THRβ was 1340 nM.

On to `N#Cc1nn(-c2cc(Cl)c(Oc3ccc(=O)n(-c4cccc(C(F)(F)F)c4)c3)c(Cl)c2)c(=O)[nH]c1=O` [Example 23, 2-(3,5-dichloro-4-((6-oxo-1-(3-(trifluoromethyl)phenyl)-1,6-dihydropyridin-3-yl)oxy)phenyl)-3,5-dioxo-2,3,4,5-tetrahydro-1,2,4-triazine-6-carbonitrile], for which, on THRα, the EC50 was found to be 2690 nM and the “THRα/β selectivity (fold)” value is 103.3 fold. The EC50 on THRβ stood at 26 nM.

Turning to `N#Cc1nn(-c2cc(Cl)c(Oc3ccc(=O)n(-c4cccc(OC(F)(F)F)c4)c3)c(Cl)c2)c(=O)[nH]c1=O` [Example 24, 2-(3,5-Dichloro-4-((6-oxo-1-(3-(trifluoromethoxy)phenyl)-1,6-dihydropyridin-3-yl)oxy)phenyl)-3,5-dioxo-2,3,4,5-tetrahydro-1,2,4-triazine-6-carbonitrile], on THRα, the concentration giving a half-maximal response (EC50) is 810 nM and the “THRα/β selectivity (fold)” value is 35.2 fold. This molecule had an EC50 on THRβ of 23 nM.

As for `Cc1cccc(-n2cc(Oc3c(Cl)cc(-n4nc(C#N)c(=O)[nH]c4=O)cc3Cl)ccc2=O)c1` [Example 26, 2-(3,5-Dichloro-4-((6-oxo-1-(3-methylphenyl)-1,6-dihydropyridin-3-yl)oxy)phenyl)-3,5-dioxo-2,3,4,5-tetrahydro-1,2,4-triazine-6-carbonitrile], on THRβ, the concentration for a half-maximal effect (EC50) was determined as 60 nM.

In turn, `Cc1ccccc1-n1cc(Oc2c(Cl)cc(-n3nc(C#N)c(=O)[nH]c3=O)cc2Cl)ccc1=O` [Example 27, 2-(3,5-Dichloro-4-((6-oxo-1-(o-methylphenyl)-1,6-dihydropyridin-3-yl)oxy)phenyl)-3,5-dioxo-1,2,3,4-4,5-tetrahydro-1,2,4-triazine-6-carbonitrile] gave an EC50 at THRβ of 136 nM.

For the molecule `N#Cc1cccc(-n2cc(Oc3c(Cl)cc(-n4nc(C#N)c(=O)[nH]c4=O)cc3Cl)ccc2=O)c1` [Example 28, 2-(3,5-Dichloro-4-((1-(3-cyanophenyl)-6-oxo-1,6-dihydropyridin-3-yl)oxy)phenyl)-3,5- -dioxo-1,2,3,4-4,5-tetrahydro-1,2,4-triazine-6-carbonitrile], at THRα, the concentration giving a half-maximal response (EC50) came to 1140 nM and the “THRα/β selectivity (fold)” value is reported as 49.5 fold. Moreover, it took 23 nM to reach a half-maximal effect on THRβ (EC50).

At THRβ, `N#Cc1nn(-c2cc(Cl)c(Oc3ccc(=O)n(-c4cc(F)cc(F)c4)c3)c(Cl)c2)c(=O)[nH]c1=O` [Example 29, 2-(3,5-Dichloro-4-((1-(3,5-difluorophenyl)-6-oxo-1,6-dihydropyridin-3-yl)oxy)phenyl) -3,5-dioxo-2,3,4,5-tetrahydro-1,2,4-triazine-6-carbonitrile] displayed a 50% effective concentration (EC50) of 297 nM.

`Cc1cc(C)cc(-n2cc(Oc3c(Cl)cc(-n4nc(C#N)c(=O)[nH]c4=O)cc3Cl)ccc2=O)c1` [Example 30, 2-(3,5-dichloro-4-((1-(3,5-dimethylphenyl)-6-oxo-1,6-dihydropyridin-3-yl)oxy)phenyl)-3,5-dioxo-2,3,4,5-tetrahydro-1,2,4-triazine-6-carbonitrile] had an EC50 at THRβ of 150 nM.

Turning to `N#Cc1nn(-c2cc(Cl)c(Oc3ccc(=O)n(-c4cccc(C5CC5)c4)c3)c(Cl)c2)c(=O)[nH]c1=O` [Example 31, 2-(3,5-dichloro-4-((1-(3-cyclopropylphenyl)-6-oxo-1,6-dihydropyridin-3-yl)oxy)phenyl)-3,5-dioxo-2,3,4,5-tetrahydro-1,2,4-triazine-6-carbonitrile], the concentration giving a half-maximal response (EC50) on THRβ amounted to 81 nM.

Consider `N#Cc1nn(-c2cc(Cl)c(Oc3ccc(=O)n(-c4ccsc4)c3)c(Cl)c2)c(=O)[nH]c1=O` [Example 32, 2-(3,5-Dichloro-4-((6-oxo-1-(thiophen-3-yl)-1,6-dihydropyridin-3-yl)oxy)phenyl)-3,5-dioxo-2,3,4,5-tetrahydro-1,2,4-triazine-6-carbonitrile], for which the half-maximal effective concentration (EC50) at THRβ was found to be 100 nM.

In turn, `N#Cc1nn(-c2cc(Cl)c(Oc3ccc(=O)n(-c4cccs4)c3)c(Cl)c2)c(=O)[nH]c1=O` [Example 33, 2-(3,5-Dichloro-4-((6-oxo-1-(thien-2-yl)-1,6-dihydropyridin-3-yl)oxy)phenyl)-3,5-diox o-2,3,4,5-tetrahydro-1,2,4-triazine-6-carbonitrile] displayed an EC50 at THRβ of 119 nM.

In turn, `N#Cc1nn(-c2cc(Cl)c(Oc3ccc(=O)n(-c4nccs4)c3)c(Cl)c2)c(=O)[nH]c1=O` [Example 34, 2-(3,5-dichloro-4-((6-oxo-1-(thiazol-2-yl)-1,6-dihydropyridin-3-yl)oxy)phenyl)-3,5-dioxo-2,3,4,5-tetrahydro-1,2,4-triazine-6-carbonitrile] registered an EC50 at THRβ of 435 nM. This EC50 is about 3.7-fold higher than that of the molecule before.

Take `Cc1nn(-c2cc(Cl)c(Oc3ccc(=O)n(-c4ccccc4)c3)c(Cl)c2)c(=O)[nH]c1=O` [Example 36, 2-(3,5-Dichloro-4-((6-oxo-1-phenyl-1,6-dihydropyridin-3-yl)oxy)phenyl)-6-methyl-1,2,4-triazine-3,5(2H, 4H)-dione]: the EC50 at THRα was 351 nM; at THRβ it was 18 nM. On THRα, the “THRα/β selectivity (fold)” value worked out at 19.5 fold.

Regarding `O=c1[nH]c(=O)n(-c2cc(Cl)c(Oc3ccc(=O)n(-c4ccc(F)cc4)c3)c(Cl)c2)nc1CF` [Example 37, 2-(3,5-dichloro-4-((1-(4-fluorophenyl)-6-oxo-1,6-dihydropyridin-3-yl)oxy)phenyl)-6-(fluoromethyl)-1,2,4-triazine-3,5(2H, 4H)-dione], at THRα, a half-maximal effect (EC50) was put at 9260 nM and the “THRα/β selectivity (fold)” value came to 100.6 fold. Further, the EC50 at THRβ was 92 nM.

Molecule `O=c1[nH]c(=O)n(-c2cc(Cl)c(Oc3ccc(=O)n(-c4cccs4)c3)c(Cl)c2)nc1CF` [Example 43, 2-(3,5-Dichloro-4-((6-oxo-1-(thiophen-2-yl)-1,6-dihydropyridin-3-yl)oxy)phenyl)-6-(fluoromethyl)-1,2,4-triazine-3,5(2H, 4H)-dione] returned a concentration giving a half-maximal response (EC50) on THRβ of 8 nM.

Regarding `CC(C)n1cc(Oc2c(Cl)cc(-n3nc(CF)c(=O)[nH]c3=O)cc2Cl)ccc1=O` [Example 44, 2-(3,5-Dichloro-4-((1-isopropyl-6-oxo-1,6-dihydropyridin-3-yl)oxy)phenyl)-6-(fluoromethyl)-1,2,4-triazine-3,5(2H, 4H)-dione], the EC50 on THRβ turned out to be 3 nM.

As for `COCCn1cc(Oc2c(Cl)cc(-n3nc(CF)c(=O)[nH]c3=O)cc2Cl)ccc1=O` [Example 45, 2-(3,5-Dichloro-4-((1-(2-methoxyethyl)-6-oxo-1,6-dihydropyridin-3-yl)oxy)phenyl)-6-(fluoromethyl)-1,2,4-triazine-3,5(2H, 4H)-dione], on THRβ, the EC50 was 32 nM.
